According to PMC12084297, “Cytoplasmic connexin43-microtubule interactions promote glioblastoma stem-like cell maintenance and tumorigenicity” (Cell Death & Disease, 2025):
“Also recorded” adds a separate entry of the source.

How the values were obtained:
normal human astrocytes = experiment: MTS viability, human astrocytes; type: cell-based; conditions: 100 μM, 4 days
Method: (§1) Cells were plated in 96-well plates (2000–5000 cells per well) and treated the following day with TMZ (10, 50, or 100 μM), antennapedia, JM2-scrambled, or JM2 (10, 50, or 100 μM). After 4 days, cell viability was monitored following addition of MTS reagent (Promega) according to manufacturer’s instructions. The absorbance at 490 nm was measured using a SpectraMax i3 or iD3 microplate reader (Molecular Devices). For the caspase 3/7 activity assay, cells were plated in 96-well plates (2000 cells per well) and treated with TMZ or peptides as described above. The activity of caspase 3/7 was measured after 48 h using the Caspase-Glo® 3/7 assay (Promega) following the manufacturer’s instructions. Fold change of caspase 3/7 activity was defined as the ratio of caspase 3/7 luminescence in treated cells compared to controls.

LN229/GSCs = experiment: MTS survival, LN229/GSCs; type: cell-based, human; conditions: 100 µM, 4 days
Method: as §1

VTC-001 GSCs = experiment: Gliosphere formation assay, VTC-001 GSCs; type: cell-based, human; conditions: VTC-001, 10, 50 or 100 μM every other day, 2 weeks
Method: (§2) GSCs and PDX GBM22 cells were plated as single cell suspension in low-attachment 96-well plates (GSCs: 100–500 cells per well; GBM22 cells: 500–2000 cells per well), using methods similar to those reported previously. Cells were then treated with peptides every other day. 2 weeks later, gliospheres were observed using phase contrast microscopy on a Revolve microscope (Echo Laboratories). The number of gliospheres was then determined, while the gliosphere size was assessed by diameter measurement. To evaluate stem cell frequency in GSCs, gliosphere formation assay was performed with limiting cell dilutions with cells plated at varying densities in low-attachment 96-well plates. Cells were treated with peptides every other day, and after 2 weeks, gliosphere-positive wells were observed and scored using phase contrast microscopy on a Revolve microscope. The stem cell frequency was analyzed using the online data analysis program ELDA (Extreme Limiting Dilution Analysis).

VTC-034 GSCs = experiment: Gliosphere formation assay, VTC-034 GSCs; type: cell-based, human; conditions: VTC-034, 10, 50 or 100 μM every other day, 2 weeks
Method: as §2

VTC-037 GSCs = experiment: Gliosphere formation assay, VTC-037 GSCs; type: cell-based, human; conditions: VTC-037, 10, 50 or 100 μM every other day, 2 weeks
Method: as §2

HES1 mRNA = HES1 mRNA by RT-qPCR, VTC-037 GSCs; type: cell-based, human; conditions: 50 μM, 24 h, compared to antennapedia alone or JM2-scrambled
Method: (§3) RNA was extracted using the PureLink^TM RNA mini extraction kit (Thermo Fisher) and on-column DNA digestion was completed using PureLink^TM DNase according to the manufacturer’s instructions. RNA was reverse transcribed to generate cDNA using the iScript^TM Reverse Transcription SuperMix for RT-qPCR kit (Bio-Rad Laboratories). Real-time PCR was performed using the SYBR select Master Mix for CFX (Thermo Fisher) in hard-shell 96-well PCR plates (Bio-Rad Laboratories) on a CFX Connect Real Time System (Bio-Rad Laboratories). Primer sequences used were: hNOTCH1_Fwd: 5’-CGCACAAGGTGTCTTCCAG-3’; hNOTCH1_Rev: 5’-CGGCGTGTGAGTTGATGA-3’; hHES1_Fwd: 5’-GGCTGGAGAGGCGGCTAA-3’; hHES1_Rev: 5’-[…]-3’; hHEY1_Fwd: 5’-[…]-3’; hHEY1_Rev: 5’-[…]-3’.

HEY1 mRNA = HEY1 mRNA by RT-qPCR, VTC-037 GSCs; type: cell-based, human; conditions: 50 μM, 24 h, compared to JM2-scrambled
Method: as §3

Sequence: VFFKGVKDRVKGRSD [JM2]
- Human astrocyte viability (MTS) (normal human astrocytes): did not observe a decrease in human astrocyte viability, even at higher JM2 concentrations; also recorded: no toxic effect of JM2 on normal human astrocytes in vitro
- LN229/GSC survival (MTS) (LN229/GSCs): significantly decreased LN229/GSC survival after 4 days
- GSC-dependent gliosphere formation (VTC-001 GSCs): inhibits VTC-001, VTC-034, and VTC-037 GSC-dependent gliosphere formation in a dose-dependent manner
- Gliosphere size (diameter) (VTC-001 GSCs; n = 4): significant decrease in gliosphere size
- Gliosphere number (VTC-001 GSCs; n = 6): significant decrease in gliosphere size as assessed by diameter measurement (Fig. 6B), and number
- GSC-dependent gliosphere formation (VTC-034 GSCs): inhibits VTC-001, VTC-034, and VTC-037 GSC-dependent gliosphere formation in a dose-dependent manner
- Gliosphere size (diameter) (VTC-034 GSCs; n = 4): significant decrease in gliosphere size
- Gliosphere number (VTC-034 GSCs; n = 6): significant decrease in gliosphere size as assessed by diameter measurement (Fig. 6B), and number
- GSC-dependent gliosphere formation (VTC-037 GSCs): inhibits VTC-001, VTC-034, and VTC-037 GSC-dependent gliosphere formation in a dose-dependent manner
- Gliosphere size (diameter) (VTC-037 GSCs; n = 4): significant decrease in gliosphere size
- Gliosphere number (VTC-037 GSCs; n = 6): significant decrease in gliosphere size as assessed by diameter measurement (Fig. 6B), and number
- Hes1 mRNA expression (HES1 mRNA): significantly decreased the expression of Notch downstream targets Hes1 and Hey1 at the transcription level
- Hey1 mRNA expression (HEY1 mRNA): significantly decreased the expression of Notch downstream targets Hes1 and Hey1 at the transcription level
